Among the data in patent US20250213701A1, “MEDICAMENT FOR TREATING HUMAN TUMOR BASED ON ERF3A-TARGETING PROTEOLYSIS MECHANISM” (SUZHOU DEGEN BIO-MEDICAL CO., LTD., priority 2022, published 2025) are IC50 values, retold here.

SMILES strings stand for the structures.

Common to all, as to format: cell-based, human
In one assay the test system is VCaP cells. Put plainly: Anti-proliferative toxicity against prostate cancer cell line Vcap (CCK8). As to conditions: Homo sapiens, 72 h, 3 days, CCK8. The procedure, abridged:
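VCaP cells (DMEM, 10% FBS) seeded 20000 cells/well, cultured 72 h, then exposed in triplicate to compound at final well concentrations of 0.00001–0.16 μM for 3 days at 37 °C, 5% CO2. Viability by CCK8, 1–4 h at 37 °C, absorbance at 450 nm.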

The test system of another assay is PC-3 cells. Put plainly: Anti-proliferative toxicity against prostate cancer cell line PC-3 (CCK8). As to conditions: Homo sapiens, 72 h, 3 days. The procedure, abridged: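 PC-3 cells (4000/well, pre-cultured 24 h) exposed in triplicate to compound at final 0.00001-1.0 μM for 3 days at 37 °C, 5% CO2. Viability read by CCK8, 1-4 h at 37 °C, absorbance at 450 nm.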

In another assay the test system is 22Rv1 cells. Put plainly: Anti-proliferative toxicity against prostate cancer cell line 22Rv1 (CCK8). To be noted: Homo sapiens, 72 h, 3 days, CCK8. In outline:
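22Rv1 cells pre-cultured for 48 h, then exposed to compounds at 0.00001-1.0 μM final, in triplicate, for 3 days. Viability read by CCK8 absorbance at 450 nm after 1-4 h at 37 °C.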

One may read the IC50 as the concentration that inhibits the measured activity by half. Read a low IC50 as higher potency. On to `C[C@]12C=CC(=O)N[C@@H]1CC[C@@H]1[C@@H]2CC[C@]2(C)[C@@H](C(=O)Nc3cccc(NC4CCCC(Nc5cccc6c5C(=O)N(C5CCC(=O)NC5=O)C6=O)C4)c3)CC[C@@H]12` (stereo partly drawn) [C58, N-(3-(N—(N-(4-(2-(3-(2,6-dioxopiperidine))-isoindole-1,3-dione))cyclohexanediamine))phenyl)-3-oxo-4-aza-5α-androst-1-ene-17β-carboxamide], for which the results for the 50% inhibitory concentration (IC50) in the assay with VCaP cells, in the assay on PC-3 cells and in the assay with 22Rv1 cells were 0.1 to 10 nM, 10 to 1000 nM and 0.1 to 10 nM, respectively.

On to `C[C@]12C=CC(=O)N[C@@H]1CC[C@@H]1[C@@H]2CC[C@]2(C)[C@@H](C(=O)Nc3cccc(N[C@H]4CCC[C@H](Nc5cccc6c5C(=O)N(C5CCC(=O)NC5=O)C6=O)C4)c3)CC[C@@H]12` (stereo partly drawn) [C60, N-(3-(N—(N-(4-(2-(3-(2,6-dioxopiperidine))-isoindole-1,3-dione))-1S,3S-cyclohexanediamine))phenyl)-3-oxo-4-aza-5α-androst-1-ene-17β-carboxamide], for which the results for the IC50 in the assay on VCaP cells, in the assay with PC-3 cells and in the assay with 22Rv1 cells were 10 to 1000 nM, greater than 1000 nM and 10 to 1000 nM, respectively.

As to `C[C@]12C=CC(=O)N[C@@H]1CC[C@@H]1[C@@H]2CC[C@]2(C)[C@@H](C(=O)Nc3cccc(N[C@H]4CCC[C@@H](Nc5cccc6c5C(=O)N(C5CCC(=O)NC5=O)C6=O)C4)c3)CC[C@@H]12` (stereo partly drawn) [C61, N-(3-(N—(N-(4-(2-(3-(2,6-dioxopiperidine))-isoindole-1,3-dione))-1S,3R-cyclohexanediamine))phenyl)-3-oxo-4-aza-5α-androst-1-ene-17β-carboxamide], the IC50 with VCaP cells, in the assay on PC-3 cells and in the assay on 22Rv1 cells was greater than 1000 nM throughout.

As to `C[C@]12C=CC(=O)N[C@@H]1CC[C@@H]1[C@@H]2CC[C@]2(C)[C@@H](C(=O)Nc3cccc(N[C@@H]4CCC[C@@H](Nc5cccc6c5CN(C5CCC(=O)NC5=O)C6=O)C4)c3)CC[C@@H]12` (stereo partly drawn) [C62, N-(3-(N—(N-(4-(2-(3-(2,6-dioxopiperidine))-1-oxo-2,3-dihydro-1H-isoindol))-1R,3R-cyclohexanediamine))phenyl)-3-oxo-4-aza-5α-androst-1-ene-17β-carboxamide], the IC50 in the assay with VCaP cells was 10 to 1000 nM; in the assay with PC-3 cells, greater than 1000 nM; in the assay with 22Rv1 cells it was greater than 1000 nM.

For the compound `C[C@]12C=CC(=O)N[C@@H]1CC[C@@H]1[C@@H]2CC[C@]2(C)[C@@H](C(=O)Nc3cccc(N[C@@H]4CCC[C@@H](Nc5cccc6c5C(=O)N([C@@H]5CCC(=O)NC5=O)C6=O)C4)c3)CC[C@@H]12` [C64, N-(3-(N—(N-(4-(2-(3R-(2,6-dioxopiperidine))-isoindole-1,3-dione))-1R,3R-cyclohexanediamine))phenyl)-3-oxo-4-aza-5α-androst-1-ene-17β-carboxamide], the IC50 in the assay on VCaP cells, in the assay on PC-3 cells and with 22Rv1 cells was 0.1 to 10 nM throughout.

Turning to `C[C@]12C=CC(=O)N[C@@H]1CC[C@@H]1[C@@H]2CC[C@]2(C)[C@@H](C(=O)Nc3cccc(N[C@@H]4CCC[C@@H](Nc5cccc6c5CN([C@H]5CCC(=O)NC5=O)C6=O)C4)c3)CC[C@@H]12` [C65, N-(3-(N—(N-(4-(2-(3S-(2,6-dioxopiperidine))-1-oxo-2,3-dihydro-1H-isoindol))-1R,3R-cyclohexanediamine))phenyl)-3-oxo-4-aza-5α-androst-1-ene-17β-carboxamide], the figures for the 50% inhibitory concentration (IC50) in the assay with VCaP cells, with PC-3 cells and with 22Rv1 cells were 10 to 1000 nM, greater than 1000 nM and 10 to 1000 nM, respectively.

Turning to `C[C@]12C=CC(=O)N[C@@H]1CC[C@@H]1[C@@H]2CC[C@]2(C)[C@@H](C(=O)Nc3cccc(N[C@@H]4CCC[C@@H](Nc5cccc6c5CN([C@@H]5CCC(=O)NC5=O)C6=O)C4)c3)CC[C@@H]12` [C66, N-(3-(N—(N-(4-(2-(3R-(2,6-dioxopiperidine))-1-oxo-2,3-dihydro-1H-isoindol))-1R,3R-cyclohexanediamine))phenyl)-3-oxo-4-aza-5α-androst-1-ene-17β-carboxamide], the IC50 with VCaP cells, with PC-3 cells and in the assay on 22Rv1 cells was greater than 1000 nM in each case.

Turning to `CC(C)(C)C(=O)OCN1C(=O)CC[C@H](N2C(=O)c3cccc(N[C@@H]4CCC[C@@H](Nc5cccc(NC(=O)[C@H]6CC[C@H]7[C@@H]8CC[C@H]9NC(=O)C=C[C@]9(C)[C@H]8CC[C@]67C)c5)C4)c3C2=O)C1=O` [C67, N-(3-(N—(N-(4-(2-(3S-(1-pivaloyloxymethyl-2,6-dioxopiperidine))-isoindole-1,3-dione))-1R,3R-cyclohexanediamine))phenyl)-3-oxo-4-aza-5α-androst-1-ene-17β-carboxamide], the 50% inhibitory concentration (IC50) is no more than 0.1 nM with VCaP cells, 0.1 to 10 nM in the assay on PC-3 cells and 0.1 to 10 nM with 22Rv1 cells.

Take `[2H][C@@]1(Nc2cccc(NC(=O)[C@H]3CC[C@H]4[C@@H]5CC[C@H]6NC(=O)C=C[C@]6(C)[C@H]5CC[C@]34C)c2)CCC[C@@]([2H])(Nc2cccc3c2C(=O)N(C2CCC(=O)NC2=O)C3=O)C1` (stereo partly drawn) [C68, N-(3-(N—(N-(4-(2-(3-(2,6-dioxopiperidine))-isoindole-1,3-dione))-1,3-dideutero-1R,3R-cyclohexanediamine))phenyl)-3-oxo-4-aza-5α-androst-1-ene-17β-carboxamide]: the IC50 is no more than 0.1 nM with VCaP cells, 0.1 to 10 nM in the assay with PC-3 cells and 0.1 to 10 nM with 22Rv1 cells.

Regarding `CC1[C@H](Nc2cccc(NC(=O)[C@H]3CC[C@H]4[C@@H]5CC[C@H]6NC(=O)C=C[C@]6(C)[C@H]5CC[C@]34C)c2)CCC[C@H]1Nc1cccc2c1C(=O)N(C1CCC(=O)NC1=O)C2=O` (stereo partly drawn) [C69, N-(3-(N—(N-(4-(2-(3-(2,6-dioxopiperidine))-isoindole-1,3-dione))-2-methyl-1R,3R-cyclohexanediamine))phenyl)-3-oxo-4-aza-5α-androst-1-ene-17β-carboxamide], the 50% inhibitory concentration (IC50) with VCaP cells was in the range of 0.1 to 10 nM; in the assay on PC-3 cells, 10 to 1000 nM; in the assay on 22Rv1 cells, 0.1 to 10 nM.

As to `C[C@]12C=CC(=O)N[C@@H]1CC[C@@H]1[C@@H]2CC[C@]2(C)[C@@H](C(=O)Nc3cccc(N[C@H]4C[C@H](Nc5cccc6c5C(=O)N(C5CCC(=O)NC5=O)C6=O)CC(F)(F)C4)c3)CC[C@@H]12` (stereo partly drawn) [C74, N-(3-(N—(N-(4-(2-(3-(2,6-dioxopiperidine))-isoindole-1,3-dione))-5,5-difluoro-1S,3S-cyclohexanediamine))phenyl)-3-oxo-4-aza-5α-androst-1-ene-17β-carboxamide], the IC50 with VCaP cells was in the range of 0.1 to 10 nM; with PC-3 cells, 10 to 1000 nM; in the assay with 22Rv1 cells, 0.1 to 10 nM.

Consider `C[C@]12C=CC(=O)N[C@@H]1CC[C@@H]1[C@@H]2CC[C@]2(C)[C@@H](C(=O)Nc3cccc(N[C@@H]4COC[C@@H](Nc5cccc6c5C(=O)N(C5CCC(=O)NC5=O)C6=O)C4)c3)CC[C@@H]12` (stereo partly drawn) [C75, N-(3-(N—(N-(4-(2-(3-(2,6-dioxopiperidine))-isoindole-1,3-dione))-tetrahydropyran-3S,5S-diamine))phenyl)-3-oxo-4-aza-5α-androst-1-ene-17β-carboxamide], for which the half-inhibitory concentration (IC50) in the assay with VCaP cells, in the assay with PC-3 cells and in the assay with 22Rv1 cells was 10 to 1000 nM each time.
